Legend:
Type in all cases: functional
[1] = tested on: SK-OV-3; assay: Growth inhibition of human SKOV3 cells after 48 hrs by sulforhodamine B assay; conditions: SK-OV-3, 48 h
[2] = tested on: NCI-H226; assay: Growth inhibition of human NCI-H226 cells after 48 hrs by sulforhodamine B assay; conditions: NCI-H226, 48 h
[3] = tested on: U-251; assay: Growth inhibition of human U251 cells after 48 hrs by sulforhodamine B assay; conditions: U-251, 48 h
[4] = tested on: NCI-H23; assay: Growth inhibition of human NCI-H23 cells after 48 hrs by sulforhodamine B assay; conditions: NCI-H23, 48 h
[5] = tested on: SNB-75; assay: Growth inhibition of human SNB75 cells after 48 hrs by sulforhodamine B assay; conditions: SNB-75, 48 h
[6] = tested on: UACC-62; assay: Growth inhibition of human UACC62 cells after 48 hrs by sulforhodamine B assay; conditions: UACC-62, 48 h
[7] = tested on: HL-60(TB); assay: Growth inhibition of human HL-60(TB) cells after 48 hrs by sulforhodamine B assay; conditions: HL-60, 48 h
[8] = Growth inhibition of human HCC2998 cells after 48 hrs by sulforhodamine B assay; conditions: HCC 2998, 48 h
[9] = tested on: MDA-MB-231; assay: Growth inhibition of human MDA-MB-231 cells after 48 hrs by sulforhodamine B assay; conditions: MDA-MB-231, 48 h
[10] = tested on: TK-10; assay: Growth inhibition of human TK10 cells after 48 hrs by sulforhodamine B assay; conditions: TK-10, 48 h
[11] = tested on: Paracentrotus lividus; assay: Microtubule destabilizing activity in sea urchin free-swimming blastula assessed as embryo spinning treated at 9 to 10 hrs post-fertilization measured after 0.15 to 15 hrs
[12] = Growth inhibition of human OVCAR5 cells after 48 hrs by sulforhodamine B assay; conditions: OVCAR-5, 48 h
[13] = tested on: IGROV-1; assay: Growth inhibition of human IGROV1 cells after 48 hrs by sulforhodamine B assay; conditions: IGROV-1, 48 h
[14] = tested on: HCT-15; assay: Growth inhibition of human HCT15 cells after 48 hrs by sulforhodamine B assay; conditions: HCT-15, 48 h
[15] = tested on: NCI-H460; assay: Growth inhibition of human NCI-H460 cells after 48 hrs by sulforhodamine B assay; conditions: NCI-H460, 48 h
[16] = tested on: DU-145; assay: Growth inhibition of human DU145 cells after 48 hrs by sulforhodamine B assay; conditions: DU-145, 48 h
[17] = tested on: SK-MEL-5; assay: Growth inhibition of human SK-MEL-5 cells after 48 hrs by sulforhodamine B assay; conditions: SK-MEL-5, 48 h
[18] = tested on: NCI-H522; assay: Growth inhibition of human NCI-H522 cells after 48 hrs by sulforhodamine B assay; conditions: NCI-H522, 48 h
[19] = Growth inhibition of human Hs 578T cells after 48 hrs by sulforhodamine B assay
[20] = tested on: BT-549; assay: Growth inhibition of human BT549 cells after 48 hrs by sulforhodamine B assay; conditions: BT-549, 48 h
[21] = tested on: KM12; assay: Growth inhibition of human KM12 cells after 48 hrs by sulforhodamine B assay; conditions: KM12, 48 h
[22] = tested on: M14; assay: Growth inhibition of human M14 cells after 48 hrs by sulforhodamine B assay; conditions: M14, 48 h
[23] = tested on: LOX IMVI; assay: Growth inhibition of human LOXIMVI cells after 48 hrs by sulforhodamine B assay
[24] = tested on: SW-620; assay: Growth inhibition of human SW620 cells after 48 hrs by sulforhodamine B assay; conditions: SW-620, 48 h
[25] = tested on: A498; assay: Growth inhibition of human A498 cells after 48 hrs by sulforhodamine B assay; conditions: A498, 48 h
[26] = Growth inhibition of human UO31 cells after 48 hrs by sulforhodamine B assay; conditions: UO-31, 48 h
[27] = tested on: HCT-116; assay: Growth inhibition of human HCT116 cells after 48 hrs by sulforhodamine B assay; conditions: HCT-116, 48 h
[28] = tested on: SNB-19; assay: Growth inhibition of human SNB19 cells after 48 hrs by sulforhodamine B assay; conditions: SNB-19, 48 h
[29] = Growth inhibition of human OVCAR4 cells after 48 hrs by sulforhodamine B assay; conditions: OVCAR-4, 48 h
[30] = tested on: HT-29; assay: Growth inhibition of human HT-29 cells after 48 hrs by sulforhodamine B assay; conditions: HT-29, 48 h
[31] = tested on: SN12C; assay: Growth inhibition of human SN12C cells after 48 hrs by sulforhodamine B assay
[32] = Growth inhibition of human RXF393 cells after 48 hrs by sulforhodamine B assay; conditions: RXF 393, 48 h
[33] = tested on: A549; assay: Growth inhibition of human A549/ATCC cells after 48 hrs by sulforhodamine B assay; conditions: A549, 48 h
[34] = tested on: Paracentrotus lividus; assay: Antimitotic activity in sea urchin fertilized egg assessed as cleavage alteration treated at 8 to 20 mins post-fertilization measured at 2.5 to 5.5 hrs post-fertilization
[35] = tested on: Paracentrotus lividus; assay: Antimitotic activity in sea urchin fertilized egg assessed as cleavage arrest treated at 8 to 20 mins post-fertilization measured at 2.5 to 5.5 hrs post-fertilization
[36] = tested on: T47D; assay: Growth inhibition of human T47D cells after 48 hrs by sulforhodamine B assay
[37] = tested on: COLO 205; assay: Growth inhibition of human COLO205 cells after 48 hrs by sulforhodamine B assay; conditions: COLO 205, 48 h
[38] = Growth inhibition of human UACC257 cells after 48 hrs by sulforhodamine B assay; conditions: UACC-257, 48 h
[39] = tested on: MOLT-4; assay: Growth inhibition of human MOLT4 cells after 48 hrs by sulforhodamine B assay; conditions: MOLT-4, 48 h
[40] = tested on: OVCAR-3; assay: Growth inhibition of human OVCAR3 cells after 48 hrs by sulforhodamine B assay; conditions: OVCAR-3, 48 h
[41] = Growth inhibition of human NCI-ADR-RES cells after 48 hrs by sulforhodamine B assay
[42] = tested on: SR; assay: Growth inhibition of human SR cells after 48 hrs by sulforhodamine B assay
[43] = tested on: NCI-H322M; assay: Growth inhibition of human NCI-H322M cells after 48 hrs by sulforhodamine B assay
[44] = tested on: HOP-62; assay: Growth inhibition of human HOP62 cells after 48 hrs by sulforhodamine B assay; conditions: HOP-62, 48 h
[45] = tested on: MCF7; assay: Growth inhibition of human MCF7 cells after 48 hrs by sulforhodamine B assay; conditions: MCF7, 48 h
[46] = Growth inhibition of human HOP92 cells after 48 hrs by sulforhodamine B assay; conditions: HOP-92, 48 h
[47] = tested on: SK-MEL-28; assay: Growth inhibition of human SK-MEL-28 cells after 48 hrs by sulforhodamine B assay; conditions: SK-MEL-28, 48 h
[48] = tested on: MDA-MB-435; assay: Growth inhibition of human MDA-MB-435 cells after 48 hrs by sulforhodamine B assay; conditions: MDA-MB-435, 48 h
[49] = tested on: SK-MEL-2; assay: Growth inhibition of human SK-MEL-2 cells after 48 hrs by sulforhodamine B assay; conditions: SK-MEL-2, 48 h
[50] = Growth inhibition of human EKVX cells after 48 hrs by sulforhodamine B assay
[51] = Growth inhibition of human SF539 cells after 48 hrs by sulforhodamine B assay; conditions: SF-539, 48 h
[52] = tested on: SF-295; assay: Growth inhibition of human SF295 cells after 48 hrs by sulforhodamine B assay; conditions: SF-295, 48 h
[53] = tested on: OVCAR-8; assay: Growth inhibition of human OVCAR8 cells after 48 hrs by sulforhodamine B assay; conditions: OVCAR-8, 48 h
[54] = tested on: MDA-MB-468; assay: Growth inhibition of human MDA-MB-468 cells after 48 hrs by sulforhodamine B assay; conditions: MDA-MB-468, 48 h
[55] = tested on: 786-0; assay: Growth inhibition of human 786-0 cells after 48 hrs by sulforhodamine B assay; conditions: 786-0, 48 h
[56] = tested on: PC-3; assay: Growth inhibition of human PC3 cells after 48 hrs by sulforhodamine B assay; conditions: PC-3, 48 h
[57] = tested on: ACHN; assay: Growth inhibition of human ACHN cells after 48 hrs by sulforhodamine B assay
[58] = tested on: SF-268; assay: Growth inhibition of human SF268 cells after 48 hrs by sulforhodamine B assay; conditions: SF-268, 48 h
[59] = tested on: RPMI-8226; assay: Growth inhibition of human RPMI8226 cells after 48 hrs by sulforhodamine B assay; conditions: RPMI-8226, 48 h
[60] = tested on: CCRF-CEM; assay: Growth inhibition of human CCRF-CEM cells after 48 hrs by sulforhodamine B assay

COc1ccc(-c2c(-c3cc4c(c(OC)c3OC)OCO4)noc2N)cc1
GI50 [1]: 338 nM | GI50 [2]: 855 nM | GI50 [3]: 359 nM | GI50 [4]: 391 nM | GI50 [5]: 138 nM | GI50 [6]: 513 nM | GI50 [7]: 189 nM | GI50 [8]: 524 nM | GI50 [9]: 983 nM | GI50 [10]: 202 nM | EC [11]: 2 µM | GI50 [12]: 2100 nM | GI50 [13]: 683 nM | GI50 [14]: 352 nM | GI50 [15]: 364 nM | GI50 [16]: 487 nM | GI50 [17]: 238 nM | GI50 [18]: 65.5 nM | GI50 [19]: 438 nM | GI50 [20]: 848 nM | GI50 [21]: 112 nM | GI50 [22]: 244 nM | GI50 [23]: 523 nM | GI50 [24]: 210 nM | GI50 [25]: 374 nM | GI50 [26]: 669 nM | GI50 [27]: 314 nM | GI50 [28]: 672 nM | GI50 [29]: 927 nM | GI50 [30]: 262 nM | GI50 [31]: 818 nM | GI50 [32]: 335 nM | GI50 [33]: 523 nM | EC [34]: 0.02 µM | EC [35]: 0.2 µM | GI50 [36]: 568 nM | GI50 [37]: 272 nM | GI50 [38]: 458 nM | GI50 [39]: 674 nM | GI50 [40]: 184 nM | GI50 [41]: 126 nM | GI50 [42]: 35.9 nM | GI50 [43]: 625 nM | GI50 [44]: 551 nM | GI50 [45]: 280 nM | GI50 [46]: 837 nM | GI50 [47]: 497 nM | GI50 [48]: 29.2 nM | GI50 [49]: 362 nM | GI50 [50]: 23600 nM | GI50 [51]: 285 nM | GI50 [52]: 274 nM | GI50 [53]: 448 nM | GI50 [54]: 138 nM | GI50 [55]: 578 nM | GI50 [56]: 300 nM | GI50 [57]: 831 nM | GI50 [58]: 641 nM

COc1ccc(/C=C\c2cc(OC)c(OC)c(OC)c2)cc1O [COMBRETASTATIN A4]
GI50 [1]: 58.9 nM | GI50 [2]: 3.81 nM | GI50 [3]: 4.03 nM | GI50 [6]: 5.51 nM | GI50 [7]: 2.16 nM | GI50 [8]: 63.4 nM | GI50 [10]: 100 nM | EC [11]: 0.05 µM | GI50 [12]: 100 nM | GI50 [13]: 14.6 nM | GI50 [14]: 3.66 nM | GI50 [15]: 3.11 nM | GI50 [18]: 2.18 nM | GI50 [21]: 4.99 nM | GI50 [23]: 3.25 nM | GI50 [24]: 3.04 nM | GI50 [25]: 6.11 nM | GI50 [27]: 3.28 nM | GI50 [28]: 3.85 nM | GI50 [30]: 100 nM | GI50 [31]: 5.98 nM | GI50 [32]: 2.37 nM | EC [34]: 0.002 µM | EC [35]: 0.01 µM | GI50 [37]: 100 nM | GI50 [39]: 3.27 nM | GI50 [40]: 2.1 nM | GI50 [41]: 1 nM | GI50 [42]: 2.99 nM | GI50 [43]: 7.45 nM | GI50 [44]: 2.65 nM | GI50 [46]: 2.73 nM | GI50 [47]: 8.07 nM | GI50 [49]: 4.37 nM | GI50 [59]: 3.42 nM | GI50 [50]: 85.7 nM | GI50 [51]: 2.54 nM | GI50 [52]: 3.87 nM | GI50 [53]: 2.99 nM | GI50 [55]: 100 nM | GI50 [57]: 6.14 nM | GI50 [58]: 5.7 nM | GI50 [60]: 2.62 nM
